The source of these data is US20250161338A1, “Compounds for Anti-aging Intervention” (AGENCY FOR SCIENCE, TECHNOLOGY AND RESEARCH, priority 2022, published 2025).

The assay concerns prototrophic yeast strain (CEN.PK113-7D). The assay can be described thus: Yeast outgrowth in YPD liquid medium (CLS of aged cells). Format: cell-based, Saccharomyces cerevisiae. A digest of the protocol:
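Cultures aged at 30 °C in SD medium with double-diluted rapamycin (0–10 nM) or sugars/polyols (0–8 mM). On day 14, 3 µL of culture was transferred into 200 µL YPD and outgrowth read as OD600. Survival expressed relative to day 1 outgrowth (100%).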

On to `OC[C@H]1O[C@H](CO)[C@@H](O)[C@@H]1O` [2,5-AM, 2,5-anhydro-D-mannitol], for which the “antiaging activity in outgrowth assays” value (Day 1, 4, 7 and 10, FIGS. 6 to 8) is “verified by outgrowth assays”. Where the note is “concentration tested 300 μg/mL, OD600 nm after 24 h in YPD, age point day 14”, this compound showed an Outgrowth of 1.3.
